Experimental data published in the supplement of paper PMC11451515.

Test system: SEM cells
Test: cell viability relative to DMSO control; higher = less cytotoxic
Conditions: 48 h
How it was run: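 Viability values are per-plate percentages of DMSO wells, with background from cell-free wells. Library compounds in DMSO were pin-dosed, in an 11-point threefold series from 47 μM to 0.79 nM, onto NOMO1 or SEM (500 cells/well) or P12-Ichikawa (1000 cells/well) leukemia cells in 1536-well plates (5 μl). Those cells had been adapted for at least four passages in each medium, and CellTiter-Glo One luminescence was read after 48 h at 37°C.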

[1] = HPLM + 10% dialyzed FBS, 0.000781 µM
[2] = HPLM + 10% dialyzed FBS, 0.00234 µM
[3] = HPLM + 10% dialyzed FBS, 0.00702 µM
[4] = HPLM + 10% dialyzed FBS, 0.0211 µM
[5] = HPLM + 10% dialyzed FBS, 0.0632 µM
[6] = HPLM + 10% dialyzed FBS, 0.19 µM
[7] = HPLM + 10% dialyzed FBS, 0.569 µM
[8] = HPLM + 10% dialyzed FBS, 1.71 µM
[9] = HPLM + 10% dialyzed FBS, 5.12 µM
[10] = HPLM + 10% dialyzed FBS, 15.4 µM
[11] = HPLM + 10% dialyzed FBS, 46.1 µM
[12] = RPMI 5 mM glucose + 10% FBS, 0.000781 µM
[13] = RPMI 5 mM glucose + 10% FBS, 0.00234 µM
[14] = RPMI 5 mM glucose + 10% FBS, 0.00702 µM
[15] = RPMI 5 mM glucose + 10% FBS, 0.0211 µM
[16] = RPMI 5 mM glucose + 10% FBS, 0.0632 µM
[17] = RPMI 5 mM glucose + 10% FBS, 0.19 µM
[18] = RPMI 5 mM glucose + 10% FBS, 0.569 µM
[19] = RPMI 5 mM glucose + 10% FBS, 1.71 µM
[20] = RPMI 5 mM glucose + 10% FBS, 5.12 µM
[21] = RPMI 5 mM glucose + 10% FBS, 15.4 µM
[22] = RPMI 5 mM glucose + 10% FBS, 46.1 µM
[23] = RPMI 5 mM glucose + 10% dialyzed FBS, 0.000781 µM
[24] = RPMI 5 mM glucose + 10% dialyzed FBS, 0.00234 µM
[25] = RPMI 5 mM glucose + 10% dialyzed FBS, 0.00702 µM
[26] = RPMI 5 mM glucose + 10% dialyzed FBS, 0.0211 µM
[27] = RPMI 5 mM glucose + 10% dialyzed FBS, 0.0632 µM
[28] = RPMI 5 mM glucose + 10% dialyzed FBS, 0.19 µM
[29] = RPMI 5 mM glucose + 10% dialyzed FBS, 0.569 µM
[30] = RPMI 5 mM glucose + 10% dialyzed FBS, 1.71 µM
[31] = RPMI 5 mM glucose + 10% dialyzed FBS, 5.12 µM
[32] = RPMI 5 mM glucose + 10% dialyzed FBS, 15.4 µM
[33] = RPMI 5 mM glucose + 10% dialyzed FBS, 46.1 µM

SMILES	cell viability [1] [%]	cell viability [2] [%]	cell viability [3] [%]	cell viability [4] [%]	cell viability [5] [%]	cell viability [6] [%]	cell viability [7] [%]	cell viability [8] [%]	cell viability [9] [%]	cell viability [10] [%]	cell viability [11] [%]	cell viability [12] [%]	cell viability [13] [%]	cell viability [14] [%]	cell viability [15] [%]	cell viability [16] [%]	cell viability [17] [%]	cell viability [18] [%]	cell viability [19] [%]	cell viability [20] [%]	cell viability [21] [%]	cell viability [22] [%]	cell viability [23] [%]	cell viability [24] [%]	cell viability [25] [%]	cell viability [26] [%]	cell viability [27] [%]	cell viability [28] [%]	cell viability [29] [%]	cell viability [30] [%]	cell viability [31] [%]	cell viability [32] [%]	cell viability [33] [%]
CNC(=O)c1cc(Oc2ccc(NC(=O)Nc3cc(C(C)(C)C)nn3-c3ccc4ncccc4c3)c(F)c2)ccn1	98.3	113	118	113	116	102	80.5	66.6	61.7	52.2	41.6	108	114	107	115	122	99.2	85.3	61.3	50.5	39.2	26.2	–	–	–	–	–	–	–	–	–	–	–
O=C1c2cccc(O)c2C(=O)c2c(O)cc(CO)cc21	101	97.7	107	119	111	34	110	105	102	97.4	109	105	103	99.9	110	93	45	101	84.2	92.3	103	103	102	97.2	100	91.7	91.2	45.1	85.9	86.4	94.2	92.6	85.3
COc1cc2nc(-c3ccc(N4CCN(C)CC4)cc3)nc(NCCN3CCOCC3)c2cc1OC	104	111	95.7	102	112	44.1	11.3	8.34	4.72	4.43	2.62	108	115	91	111	107	107	41.1	14.1	7.04	3.02	2.56	114	106	107	102	111	81.7	29.3	10.7	5.08	3.57	2.59
O=C(NC1CC1)c1cccc(-c2ccc3c(NC(=O)C4CC4)n[nH]c3c2)c1	98.9	98.1	107	96.2	97.6	95.1	97.2	98.5	90	62.8	18.8	97.1	106	109	107	103	98.4	103	113	89.4	51.3	11.1	103	108	104	104	116	115	102	104	86.1	56.9	18.2
